From BindingDB's records for patent US10053471 (Boehringer Ingelheim International, 2018) come the findings set out here.

This assay addresses 5'-AMP-activated protein kinase catalytic subunit alpha-1/subunit beta-1/subunit gamma-1 (Homo sapiens, UniProt P54619+Q13131+Q9Y478). As to the kind of experiment: in vitro AMPK activation assays. The note with it: pH 7; 25 °C. As to the method: The test compounds were dissolved in 100% DMSO at a concentration of 10 mM and in a first step diluted in DMSO to a concentration of 5 mM, followed by serial dilution steps in 100% DMSO. Dilution factor and number of dilution steps may vary. Typically 8 different concentrations by 1:5 dilutions were prepared, further dilutions of the substances were carried out with test buffer (20 mM Hepes (pH 7.0), 15 mM MgCl2, 0.025% BSA, 0.01% Brij 35) until a concentration was reached which was 5 times above the final test concentration. 2 μl aliquots of these dilutions were transferred into a 384-well Optiplate (Perkin Elmer, #6007290). Typically the start concentration for serial dilutions in the assay is 10 μM. Typically AMPK was diluted to 25 μg/ml in the test buffer and 4 μl of this dilution were used in the kinase test (final concentration of AMPK is 10 μg/ml in a total volume of 10 μl for the kinase reaction). Kinase concentrations may vary depending on activity of the preparation batches. […] The plates were read with an Envision Luminescence Reader (Perkin-Elmer).

Structures are written as SMILES.

A word on the EC50: it is the concentration at which the effect is half-maximal.

Sequence of 5'-AMP-activated protein kinase catalytic subunit alpha-1/subunit beta-1/subunit gamma-1 (Q9Y478 whole entry): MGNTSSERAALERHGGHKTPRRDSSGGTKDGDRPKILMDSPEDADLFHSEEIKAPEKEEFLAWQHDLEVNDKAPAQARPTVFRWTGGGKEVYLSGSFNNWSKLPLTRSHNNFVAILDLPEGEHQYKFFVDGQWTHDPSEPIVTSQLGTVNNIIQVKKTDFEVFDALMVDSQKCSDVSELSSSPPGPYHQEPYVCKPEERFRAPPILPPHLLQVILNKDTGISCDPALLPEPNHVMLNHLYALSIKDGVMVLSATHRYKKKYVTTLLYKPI
Sequence of 5'-AMP-activated protein kinase catalytic subunit alpha-1/subunit beta-1/subunit gamma-1 (P54619 whole entry): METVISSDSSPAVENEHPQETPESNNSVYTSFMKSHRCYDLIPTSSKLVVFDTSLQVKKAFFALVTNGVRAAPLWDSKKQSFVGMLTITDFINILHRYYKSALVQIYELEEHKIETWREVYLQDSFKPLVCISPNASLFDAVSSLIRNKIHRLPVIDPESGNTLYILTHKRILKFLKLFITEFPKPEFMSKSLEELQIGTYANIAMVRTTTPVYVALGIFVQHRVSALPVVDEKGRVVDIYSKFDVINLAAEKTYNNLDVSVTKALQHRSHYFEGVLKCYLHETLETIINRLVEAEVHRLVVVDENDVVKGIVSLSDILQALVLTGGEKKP
Sequence of 5'-AMP-activated protein kinase catalytic subunit alpha-1/subunit beta-1/subunit gamma-1 (Q13131 whole entry): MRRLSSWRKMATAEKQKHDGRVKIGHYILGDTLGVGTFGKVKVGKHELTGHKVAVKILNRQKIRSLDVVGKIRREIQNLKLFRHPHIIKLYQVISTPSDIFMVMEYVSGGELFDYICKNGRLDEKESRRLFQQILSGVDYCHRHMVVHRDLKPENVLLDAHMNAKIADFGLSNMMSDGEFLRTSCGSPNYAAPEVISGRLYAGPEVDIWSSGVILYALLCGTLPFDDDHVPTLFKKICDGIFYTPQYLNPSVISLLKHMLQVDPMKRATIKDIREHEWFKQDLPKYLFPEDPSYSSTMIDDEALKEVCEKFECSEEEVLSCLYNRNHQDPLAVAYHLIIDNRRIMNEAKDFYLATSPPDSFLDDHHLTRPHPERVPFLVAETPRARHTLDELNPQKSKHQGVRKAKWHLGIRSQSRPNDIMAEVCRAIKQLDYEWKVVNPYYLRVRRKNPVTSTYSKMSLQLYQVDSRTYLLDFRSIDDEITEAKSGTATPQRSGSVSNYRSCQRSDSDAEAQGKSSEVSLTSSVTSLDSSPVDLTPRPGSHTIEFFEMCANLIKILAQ

`CS(=N)(=O)c1ccc(-c2ccc(-c3nc4[nH]c(O[C@@H]5CO[C@H]6[C@@H]5OC[C@H]6O)nc4cc3Cl)cc2)c(F)c1` (stereo partly specified) [US10053471, 13] had an EC50 of 71 nM.
